PMC11774939, “Optimizing lipopeptide bioactivity: The impact of non-ionic surfactant dressing” (Journal of Pharmaceutical Analysis, 2024)
Where two headings read alike, the source gives them in different places. Peptide text beside a SMILES is read from it. * marks the point of attachment. Palmitoyl = CCCCCCCCCCCCCCCC(=O)*

How the values were obtained:
[1] = cited from earlier work
[2] = cited from earlier work; remark: listed apart in the source
Description: Supplement mmc1.docx, table 1: Table S1. Lipopeptide-based drugs, with their characteristics, disease target, and the year of approval. | column: Plasma protein binding

[3] = tested on: HT-29 colorectal adenocarcinoma cells; assay: In vitro antitumor effect, AlamarBlue; format: cell-based, human; conditions: 5 μM pCM15 lipopeptide, 24 h treatment, vs medium-treated control, mean ± SD, n = 4
Method: All data are presented as mean ± SD (n = 4). Statistical analysis was performed using one-way analysis of variance (ANOVA), followed by Tukey's post-hoc test. Statistical significances were denoted as ^∗P < 0.05, ^∗∗P < 0.01, and ^∗∗∗P < 0.001.

S. aureus = tested on: S. aureus; parameters: method as in 2 sources, one per row (each row's own in cited_ref): ref 69 = [69]; PMID 34822969; doi:10.1016/j.micpath.2021.105301; 69 Roshanak S. Shahidi F. Tabatabaei Yazdi F. Buforin I an alternative to conventional antibiotics: Evaluation of the antimicrobial properties, stability, and safety Microb. Pathog. 161 2021 105301 10 ||| ref 53,70 = [53]; PMID 10890923; doi:10.1073/pnas.150518097; 53 Park C.B. Yi K.S. Matsuzaki K. Structure-activity analysis of buforin II, a histone H2A-derived antimicrobial peptide: The proline hinge is responsible for the cell-penetrating ability of buforin I || [70]; 70 Lee H. Yang S. Dimerization of cell-penetrating buforin II enhances antimicrobial properties J. Anal. Sci. Technol. 12 2021 9; conditions: cited from earlier work
Description: (§1) However, since this peptide contains only four amino aci ...

MRSA strain = tested on: MRSA strain; parameters: method as in PMID 34822969; conditions: cited from earlier work
Description: as §1

[4] = Encapsulation efficacy: HPLC of lipopeptide passing 0.2 μm filter; format: physicochemical; conditions: poloxamer 5 g/L in PBS, peptide pre-dissolved in DMSO (pL1 200 μM, pCM15 100 μM, pATIPC 10 μM); centrifuged through 0.2 μm nylon filter, HPLC AUC vs fully solubilized lipopeptide
Method: Section S3 in the Supplementary data contains the detailed characterization of the mixed micelles (Fig. S7A). First, calibration curves were plotted for each lipopeptide in a medium in which the compounds were perfectly soluble, namely in eluent B (0.1% TFA in acetonitrile:water (4:1, V/V) solution) (Figs. S7B−D). Next, poloxamer-lipopeptide constructs were prepared as follows: the lipopeptide samples were pre-dissolved in DMSO and then mixed with the poloxamer/PBS solutions, left shaking overnight. In the next day, the concentration was adjusted by adding PBS to the solutions. The composition of the samples was as follows: poloxamer 5 g/L and peptides (pL1 200 μM, pCM15 100 μM, and pATIPC 10 μM). Then, lipopeptide/poloxamer constructs were centrifuged using a 0.2 μm nylon filter, diluted twice with eluent B, and injected to the HPLC column. […] The highest encapsulation efficacy was measured for the shortest lipopeptide pL1, and all three poloxamers formed mixed micelles with the lipopeptides in more than 80%. It was assumed that the filtered part of the samples contains the lipopeptide aggregates with particle size of […].
Fig. S7. Formulation of Lipopeptides with Poloxamers. Overview of the analytical characterization of the samples (A). Calibration curves for the fully solubilized lipopeptides with the linear regression equation (B-D). […]

[5] = DLS of peptide-loaded poloxamer micelles; format: physicochemical; conditions: lipopeptide-loaded Plur123 micelles, DLS 37 °C
Method: Peptide-loaded poloxamer micelles were prepared by solubilizing the peptides in 50 g/L poloxamer solutions in PBS (pH 7.4). The peptides were previously dissolved in DMSO, and then the poloxamer solutions were added. The final DMSO content was 5%. The solutions were left shaking overnight to allow enough time for solubilization. Before the measurements, PBS was added to the solutions to reach 5 g/L poloxamer concentration. In the biological experiments, these samples were diluted twice with the corresponding culture media.
The average hydrodynamic diameter (dH) and polydispersity of the peptide-loaded micelles were determined using a dynamic light scattering (DLS) instrument (NanoLab 3D^TM, LS Instruments, Fribourg, Switzerland) based on three-dimensional (3D) modulation technology. A fibre-coupled diode laser operating at 638 nm served as the light source. The measurements were performed at a detection angle of 90° and at temperatures of 37.00 ± 0.02 °C. The recorded autocorrelation functions were analyzed using the second order cumulant expansion method. Before the measurements, the samples were filtered with a 0.2 μm syringe filter.

[6] = Antigen release, dialysis membrane assay; format: physicochemical; conditions: pATIPC-Plur123 mixed micelles (80 µM peptide, Plur123 40 g/L in PBS), dialysis 10K MWCO, 37 °C, after 4 h, HPLC AUC vs 0 h
Method: Lipopeptide release was assessed by incubating the mixed micelles in PBS at 37 °C for 6 hours, using the dialysis membrane method. Briefly, the pATIPC lipopeptide (80 µM) was dissolved in Plur123 (40 g/L, in PBS), mixed, then centrifuged using a 0.2 µm Nylon filter to remove the aggregated peptide particles. The formation of the mixed micelles was checked by DLS and the peptide content was measured by HPLC, as described above. Mixed micelle solution was then loaded into a Slide-A-Lyzer Mini Dialysis Device (10K MWCO) (Thermo Fisher Scientific, Waltham, MA, USA) and incubated at 37 °C using PBS as release medium. At 0, 1, 4 and 6 h, the micelles within the dialysis membrane were taken for measurements of particle size and distribution by DLS.

Row | Compound | Half-life ([1]; approved drug characteristics) [h] | Route of elimination ([1]; approved drug characteristics) | Plasma protein binding ([2]; approved drug characteristics) | also measured
1 | Caspofungin | 9 to 11 | Urinary and fecal excretion | 97% | 
2 | CCCCCCCCCCCCCCCC(=O)N[C@@H](CCCCN)C(=O)N[C@@H](Cc1c[nH]c2ccccc12)C(=O)N[C@@H](CCCCN)C(=O)N[C@@H](CC(C)C)C(=O)N[C@@H](Cc1ccccc1)C(=O)N[C@@H](CCCCN)C(=O)N[C@@H](CCCCN)C(=O)N[C@H](C(=O)NCC(=O)N[C@@H](C)C(=O)N[C@H](C(=O)N[C@@H](CC(C)C)C(=O)N[C@@H](CCCCN)C(=O)N[C@H](C(=O)N[C@@H](CC(C)C)C(N)=O)C(C)C)C(C)C)[C@@H](C)CC [pCM15] (Palmitoyl-KWKLFKKIGAVLKVL-NH2) |  |  |  | Cytotoxicity [3]: 35.0% ± 4.8
3 | Insulin detemir |  |  |  | Half-life ([1]; in vivo): 5 to 7 h; Route of elimination ([1]; in vivo): Mainly urinary excretion; Plasma protein binding [2]: 98%
4 | AGRGKQGGKVRAKAKTRSSRAGLQFPVGRVHRLLRKGNY [Buforin I] |  |  |  | Concentration with activity against S. aureus (S. aureus): 10 µg/mL; MIC for the MRSA strain (MRSA strain): 14 µg/mL
5 | Dalbavancin |  | Mainly through fecal excretion | 93% | 
6 | Colistin |  |  |  | Half-life ([1]; in vivo): 5 h; Route of elimination ([1]; in vivo): Mainly urinary excretion; Plasma protein binding [2]: 50%
7 | Insulin degludec | 25 | Mainly urinary excretion | >99% | 
8 | Micafungin | 14 to 17 | Mainly through fecal excretion | >99% | 
9 | pal-KLVANNTRLTKPK- (FFGINTIPIAC)-GGLIDIAPHQISSV [pATIPC] |  |  |  | Encapsulation (lipopeptide in form <0.2 μm, in mixed micelles) [4]: around 60%; Increase in particle size after one week of storage as a solution [5]: 10 nm; pATIPC antigen remaining inside the micelles [6]: more than 50%
10 | Daptomycin |  | Urinary excretion | 90-94% | 
11 | Rezafungin | >130 | Mainly through fecal excretion | 87-99% | 
12 | Polymyxin B | 6 to 11.5 | Mainly urinary excretion |  | 
